The target of assay [1] is T1, olfactory receptor OR8D1 (Homo sapiens, UniProt Q8WZ84).
T1 construct: expressed in transfected cells; host or cells: HEK293
T1 sequence (Q8WZ84 1-308): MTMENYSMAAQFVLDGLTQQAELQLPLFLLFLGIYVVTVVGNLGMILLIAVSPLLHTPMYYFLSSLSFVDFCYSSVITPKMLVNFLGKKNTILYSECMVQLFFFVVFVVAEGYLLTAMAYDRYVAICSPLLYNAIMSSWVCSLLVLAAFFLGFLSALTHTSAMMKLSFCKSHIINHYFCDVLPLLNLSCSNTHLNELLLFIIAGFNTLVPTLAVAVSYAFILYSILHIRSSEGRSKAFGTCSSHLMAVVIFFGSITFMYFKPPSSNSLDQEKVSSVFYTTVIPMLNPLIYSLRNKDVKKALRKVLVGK
Description: Antagonistic activity against the response of OR8D1 to sotolone (luciferase assay, rate of inhibition). In kind it is cell-based. To be noted: sotolone 100 μM and test substance 100 μM, OR8D1-expressing HEK293 cells. As for the experimental part:
228 types of test substances were examined for their antagonistic activity against the response of the olfactory receptor OR8D1 to sotolone.
Sotolone (100 μM) and each test substance (100 μM) were added to HEK293 cells allowed to express the olfactory receptor OR8D1 by the same procedures as in Example 2. The response of the olfactory receptor was measured to evaluate change in receptor response caused by the addition of the test substance.
The rate of inhibition of the receptor response by the test substance was calculated as follows: firefly luciferase-derived luminescence intensity (Y) in the olfactory receptor OR8D1-expressing cells without sotolone stimulation was subtracted from firefly luciferase-derived luminescence intensity (X) induced by stimulation with sotolone alone to determine receptor activity (X−Y) based on the stimulation with sotolone alone. Likewise, the luminescence intensity (Y) in the cells without sotolone stimulation was subtracted from luminescence intensity (Z) induced by stimulation with the mixture of sotolone and the test substance to determine receptor activity (Z−Y) in the presence of the test substance. The rate of reduction in the receptor activity (Z−Y) in the presence of the test substance with respect to the receptor activity (X−Y) based on the stimulation with sotolone alone was calculated according to an expression shown below to determine the rate of inhibition of the receptor response by the test substance. In this assay, a plurality of independent duplicate experiments was performed. An average of the experiments in each run was obtained. Rate of inhibition (%)={1−(Z−Y)/(X−Y)}×100

The target of assay [2] is T1, olfactory receptor OR8D1. Description: Luciferase reporter gene assay (cAMP) of olfactory receptor response to sotolone in HEK293 cells. In kind it is cell-based. The source says:
(§1) On the basis of sequence information registered in GenBank, each human olfactory receptor gene was cloned by PCR with Human Genomic DNA Female (G1521: Promega Corp.) as a template. Each gene thus amplified by PCR was inserted into a pENTR vector (Invitrogen Corp.) according to the manual. A NotI-AscI site present on the pENTR vector r was recombined into a NotI-AscI site prepared downstream of Flag-Rho tag sequence on a pME18S vector.
(§2) A gene (GenBank GI: 50234917) encoding a human receptor transport protein, RTP1S was inserted into the EcoRI-XhoI site of the pME18S vector.
(§3) HEK293 cells expressing each of 400 types of human olfactory receptors were prepared. […]
(§4) The olfactory receptors expressed on the HEK293 cells are conjugated with intracellular Gas to activate adenylate cyclase, thereby increasing intracellular cAMP levels. In this study, their responses to sotolone were measured using luciferase reporter gene assay which involved monitoring increase in intracellular cAMP level as luminescence intensity derived from a firefly luciferase gene (fluc2P-CRE-hygro). […]
(§5) A medium was removed from the cultures prepared in the preceding paragraph 3). […] The luciferase activity was measured using Dual-Glo™ luciferase assay system (Promega Corp.) according to the instruction manual of the product. […]
In general terms: In a reporter assay the amount or activity of a reporter protein is the signal.

The test system of assay [3] is the other olfactory receptors (400 types of human olfactory receptors except OR8D1). The assay can be described thus: Luciferase reporter gene assay of 400 types of human olfactory receptors, response to sotolone. In kind it is cell-based. To be noted: sotolone 1 mM, HEK293 cells expressing each receptor.
Source text: as §1, §2, §3, §4, §5

Assay [4] addresses T1, olfactory receptor OR8D1. To be noted: Non-Patent Document 5; cited from earlier work.

We go through nine compounds from patent publication US9254248B2, “Inhibitor of odor caused by sotolone” (Kao Corporaton, priority 2013, dated 2016).

The inhibition is how much of the control response was suppressed. A lower inhibition goes with a response near the control. For the compound `CC(C)=CCCC(C)=CC=O` [Citral, citral], on olfactory receptor OR8D1 [1], the inhibition at 100 µM is at least 50%.

In turn, `CC(C)(C)c1ccc(CCC=O)cc1` [bourgeonal, 3-(4-tert-butylphenyl)propanal] gave an inhibition at 100 µM against olfactory receptor OR8D1 [1] of at least 50%. Still for that read-out and setting: in the case of `CC1C/C=C/CCCCCCCCCC(=O)C1` [Muscenone(R) Delta, (5E)-3-methylcyclopentadec-5-en-1-one] it was at least 50%. On the same count and under the same terms, in the case of `CC(=O)C1=C(C)C2CC3(C1)C(C)CCC3C2(C)C` (stereo not drawn) [acetylcedrene, 1-(2,3,4,7,8,8a-hexahydro-3,6,8,8-tetramethyl-1H-3a,7-methanoazulen-5-yl)-ethanone] it was at least 75%; in that of `CCCCCC(C=O)=Cc1ccccc1` [amylcinnamic aldehyde, 2-benzylideneheptanal], at least 50%. On to `C[C@@H]1CCCCCCCCCCCCC(=O)C1` [Muscone, muscone], for which the “rate of inhibition of the response of OR8D1 to sotolone” value at olfactory receptor OR8D1 [1] was 40% or more rate of. In turn, `CC(=O)c1cc2c(cc1C)C(C)(C)C(C)CC2(C)C` [Tonalid(R), 1-(5,6,7,8-tetrahydro-3,5,5,6,8,8-hexamethyl-2-naphthalenyl)-ethanone] registered an inhibition at 100 µM on olfactory receptor OR8D1 [1] of at least 50%.

Regarding `CC1=C(O)C(=O)OC1C` (stereo not drawn) [sotolone, 3-Hydroxy-4,5-dimethyl-2(5H)-furanone], the “concentration dependence of the response of OR8D1 to sotolone” value at olfactory receptor OR8D1 [2] (sotolone 0, 3, 10, 30, 100, 300, 1000 and 3000 μM, HEK293 cells with human RTP1S) is listed as “concentration-dependent response”. Besides, on olfactory receptor OR8D1 [2] (sotolone 1 mM, HEK293 cells expressing the receptor, 2.5 hours, fold increase of luminescence), the “response of olfactory receptor OR8D1 to sotolone” value was “exhibited a response”. Besides, the “response of the other olfactory receptors to sotolone” value in assay [3] is given as “did not respond”. In addition, the “response of olfactory receptor OR8D1 induced by sotolone (reported)” value at olfactory receptor OR8D1 [4] is “induces the response”. The compound `CC(=O)C1(C)CC2=C(CCCC2(C)C)CC1C` (stereo not drawn) [Iso E Super, 7-acetyl-1,2,3,4,5,6,7,8-octahydro-1,1,6,7-tetramethyl-naphthalene] registered an inhibition at 100 µM on olfactory receptor OR8D1 [1] of at least 50%.
